From patent US10072006B2 (MUTABILIS, priority 2015, dated 2018)
pIC50: −log10 of the molar value.

Key:
OXA-48 = target: T1, OXA-48 (Klebsiella pneumoniae, UniProt Q6XEC0); experiment: β-lactamase inhibitory activity, determination of IC50 (nitrocefin hydrolysis); type: biochemical
T1 construct: made in house; host or cells: E. coli

[1] = test system: E. cloacae UFR85 (TEM-1, CTX-M-15, derepressed ampC); experiment: microbe, parasite or virus in culture; type: cell-based; settings: for MIC: Enterobacter cloacae, 18 h, read-out: MIC compounds of the invention alone
Procedure: […] […] Microplates were incubated for 16-20 h at 35° C. in ambient air. The MIC of the compounds was defined as the lowest concentration of said compounds that prevented bacterial growth as read by visual inspection.

[2] = test system: P. aeruginosa CIP105250 (OXA-15); experiment: MIC of compounds and synergy with ceftazidime (broth microdilution); type: cell-based; settings: strain CIP105250 (P. aeruginosa); for MIC, combination of CAZ and compounds of the invention: MIC of ceftazidime with compound fixed at 4 μg/mL; for MIC: Pseudomonas aeruginosa, 18 h, read-out: MIC compounds of the invention alone
How it was run: (§1)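 Each compound, alone and in DMSO, is spotted onto sterile polystyrene plates, which are then incubated in ambient air at 35° C for 16 to 20 h. Inhibition of bacterial growth, judged visually, defines the MIC as the lowest effective concentration.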

[3] = test system: P. aeruginosa UFR35 (OXA-23); experiment: as above; type: cell-based; settings: strain UFR35 (P. aeruginosa); for MIC: Pseudomonas aeruginosa, 18 h, read-out: MIC compounds of the invention alone
How it was run: as §1

[4] = test system: P. aeruginosa UFR48 (VIM-2); experiment: as above; type: cell-based; settings: strain UFR48 (P. aeruginosa); for MIC: Pseudomonas aeruginosa, 18 h, read-out: MIC compounds of the invention alone
How it was run: as §1

E. coli RGN238 (OXA-1) = experiment: as above; type: cell-based; settings: strain RGN238 (E. coli); for MIC: Escherichia coli, 18 h, read-out: MIC compounds of the invention alone; for MIC, combination of CAZ and compounds of the invention: MIC of ceftazidime with compound fixed at 4 μg/mL
How it was run: as §1

[5] = test system: E. cloacae UFR70 (TEM-1, CTX-M-15, CMY-2, OXA-1, Porin loss); experiment: as above; type: cell-based; settings: for MIC: Enterobacter cloacae, 18 h, read-out: MIC compounds of the invention alone; for MIC, combination of CAZ and compounds of the invention: MIC of ceftazidime with compound fixed at 4 μg/mL, strain UFR70 (E. cloacae)
How it was run: as §1

[6] = test system: P. aeruginosa UFR59 (IMP-29); experiment: as above; type: cell-based; settings: strain UFR59 (P. aeruginosa); for MIC: Pseudomonas aeruginosa, 18 h, read-out: MIC compounds of the invention alone
How it was run: as §1

[7] = test system: K. pneumoniae 6299 (TEM-1, SHV-11, OXA-163); experiment: as above; type: cell-based; settings: strain 6299 (K. pneumoniae); for MIC: Klebsiella pneumoniae, 18 h, read-out: MIC compounds of the invention alone; for MIC, combination of CAZ and compounds of the invention: MIC of ceftazidime with compound fixed at 4 μg/mL
How it was run: as §1

[8] = test system: K. pneumoniae BAA-1898 (TEM-1, SHV-11, SHV-12, KPC-2); experiment: as above; type: cell-based; settings: strain BAA-1898 (K. pneumoniae); for MIC: Klebsiella pneumoniae, BAA1898, read-out: MIC compounds of the invention alone; for MIC, combination of CAZ and compounds of the invention: MIC of ceftazidime with compound fixed at 4 μg/mL
How it was run: as §1

[9] = test system: K. pneumoniae UFR77 (CMY-2); experiment: as above; type: cell-based; settings: strain UFR77 (K. pneumoniae); for MIC: Klebsiella pneumoniae, 18 h, read-out: MIC compounds of the invention alone; for MIC, combination of CAZ and compounds of the invention: MIC of ceftazidime with compound fixed at 4 μg/mL
How it was run: as §1

[10] = test system: E. coli UFR32 (TEM-1, VEB-1, OXA-10); experiment: as above; type: cell-based; settings: strain UFR32 (E. coli); for MIC: Escherichia coli, 18 h, read-out: MIC compounds of the invention alone; for MIC, combination of CAZ and compounds of the invention: MIC of ceftazidime with compound fixed at 4 μg/mL
How it was run: as §1

[11] = test system: E. coli UFR52 (TEM-1, SHV-12, IMP-8); experiment: as above; type: cell-based; settings: strain UFR52 (E. coli); for MIC: Escherichia coli, 18 h, read-out: MIC compounds of the invention alone; for MIC, combination of CAZ and compounds of the invention: MIC of ceftazidime with compound fixed at 4 μg/mL
How it was run: as §1

[12] = test system: P. aeruginosa UFR93 (Derepressed ampC, OprD-, MexAB+, MexXY+); experiment: as above; type: cell-based; settings: for MIC: Pseudomonas aeruginosa, 18 h, read-out: MIC compounds of the invention alone
How it was run: as §1

[13] = test system: E. cloacae P99 (Derepressed ampC); experiment: as above; type: cell-based; settings: strain P99 (E. cloacae); for MIC: Enterobacter cloacae, 18 h, read-out: MIC compounds of the invention alone; for MIC, combination of CAZ and compounds of the invention: MIC of ceftazidime with compound fixed at 4 μg/mL
How it was run: as §1

[14] = test system: E. coli UFR61O (TEM-1, KPC-2); experiment: as above; type: cell-based; settings: for MIC: Escherichia coli, strain UFR61O (E. coli), read-out: MIC compounds of the invention alone; for MIC, combination of CAZ and compounds of the invention: MIC of ceftazidime with compound fixed at 4 μg/mL, strain UFR610 (E. coli)
How it was run: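 MICs were scored by eye after 16-20 h at 35° C (ambient air), using compounds spotted from DMSO.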

[15] = test system: C. murliniae 210102 (VIM-4); experiment: as above; type: cell-based; settings: strain 210102 (C. murliniae); for MIC: 18 h, read-out: MIC compounds of the invention alone; for MIC, combination of CAZ and compounds of the invention: MIC of ceftazidime with compound fixed at 4 μg/mL
How it was run: as §1

[16] = test system: P. aeruginosa CIP107051 (TEM-24); experiment: as above; type: cell-based; settings: strain CIP107051 (P. aeruginosa); for MIC, combination of CAZ and compounds of the invention: MIC of ceftazidime with compound fixed at 4 μg/mL; for MIC: Pseudomonas aeruginosa, 18 h, read-out: MIC compounds of the invention alone
How it was run: as §1

[17] = test system: E. cloacae UFR38 (CTX-M-15, NDM-1); experiment: as above; type: cell-based; settings: strain UFR38 (E. cloacae); for MIC: Enterobacter cloacae, 18 h, read-out: MIC compounds of the invention alone; for MIC, combination of CAZ and compounds of the invention: MIC of ceftazidime with compound fixed at 4 μg/mL
How it was run: as §1

AmpC (P99) = AmpC (P99) (Enterobacter cloacae, UniProt P05364); experiment: biochemical
[18] = test system: K. pneumoniae UFR68 (TEM-1, SHV-11, CTX-M-15, KPC-3); experiment: microbe, parasite or virus in culture; type: cell-based; settings: for MIC: Klebsiella pneumoniae, 18 h, read-out: MIC compounds of the invention alone
OXA-1 = target: T2, OXA-1 (Escherichia coli, UniProt P13661); experiment: β-lactamase inhibitory activity, determination of IC50 (nitrocefin hydrolysis); type: biochemical
T2 construct: made in house; host or cells: E. coli

AmpC (PAE) = AmpC (PAE) (Pseudomonas aeruginosa, UniProt P24735); experiment: biochemical
KPC-2 = target: T3, KPC-2 (Klebsiella pneumoniae, UniProt Q9F663); experiment: β-lactamase inhibitory activity, determination of IC50 (nitrocefin hydrolysis); type: biochemical
T3 construct: made in house; host or cells: E. coli

OXA-15 = target: T4, OXA-15 (Pseudomonas aeruginosa, UniProt Q51574); experiment: as above; type: biochemical
T4 construct: made in house; host or cells: E. coli

[19] = MIC of ceftazidime with compound fixed at 4 μg/mL

T4 sequence (Q51574 22-275): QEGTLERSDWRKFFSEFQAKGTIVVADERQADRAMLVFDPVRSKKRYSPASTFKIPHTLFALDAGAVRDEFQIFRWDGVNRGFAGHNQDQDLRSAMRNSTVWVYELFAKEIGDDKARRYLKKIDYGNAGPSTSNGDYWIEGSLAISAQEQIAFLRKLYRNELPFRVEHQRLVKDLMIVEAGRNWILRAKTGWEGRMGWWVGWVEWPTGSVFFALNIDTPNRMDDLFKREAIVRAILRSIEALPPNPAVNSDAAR
AmpC (PAE), sequence (P24735 27-397): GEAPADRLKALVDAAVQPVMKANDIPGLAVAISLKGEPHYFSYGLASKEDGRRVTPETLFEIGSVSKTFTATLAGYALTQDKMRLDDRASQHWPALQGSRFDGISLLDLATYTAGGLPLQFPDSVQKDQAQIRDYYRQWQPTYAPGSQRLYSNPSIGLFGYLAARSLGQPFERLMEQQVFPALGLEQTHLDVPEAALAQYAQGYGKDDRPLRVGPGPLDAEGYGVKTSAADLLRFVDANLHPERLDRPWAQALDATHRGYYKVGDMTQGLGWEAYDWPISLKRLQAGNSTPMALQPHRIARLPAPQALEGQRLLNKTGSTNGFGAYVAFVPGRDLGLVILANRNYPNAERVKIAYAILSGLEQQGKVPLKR
T3 sequence (Q9F663 25-293 limits assumed): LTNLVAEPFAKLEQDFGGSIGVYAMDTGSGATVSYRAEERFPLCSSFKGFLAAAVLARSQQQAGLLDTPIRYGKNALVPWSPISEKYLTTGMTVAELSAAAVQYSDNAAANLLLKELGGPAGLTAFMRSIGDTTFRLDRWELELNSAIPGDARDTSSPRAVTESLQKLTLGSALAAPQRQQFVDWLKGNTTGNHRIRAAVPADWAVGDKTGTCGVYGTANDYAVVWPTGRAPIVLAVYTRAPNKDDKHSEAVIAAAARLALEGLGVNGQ
T2 sequence (P13661 26-276): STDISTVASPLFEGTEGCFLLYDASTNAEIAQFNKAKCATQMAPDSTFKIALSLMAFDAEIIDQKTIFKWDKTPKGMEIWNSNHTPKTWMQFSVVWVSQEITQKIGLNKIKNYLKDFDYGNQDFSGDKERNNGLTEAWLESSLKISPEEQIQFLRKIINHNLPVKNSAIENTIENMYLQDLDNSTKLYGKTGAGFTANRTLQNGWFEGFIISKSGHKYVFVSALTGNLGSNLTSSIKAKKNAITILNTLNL
T1 sequence (Q6XEC0 23-265 limits assumed): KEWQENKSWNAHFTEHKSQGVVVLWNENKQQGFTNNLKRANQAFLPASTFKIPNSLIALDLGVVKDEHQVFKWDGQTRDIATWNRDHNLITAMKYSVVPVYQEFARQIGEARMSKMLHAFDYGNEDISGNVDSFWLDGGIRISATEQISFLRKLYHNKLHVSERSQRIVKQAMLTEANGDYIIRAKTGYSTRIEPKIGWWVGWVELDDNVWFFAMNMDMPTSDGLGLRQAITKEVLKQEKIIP
AmpC (P99), sequence (P05364 21-381): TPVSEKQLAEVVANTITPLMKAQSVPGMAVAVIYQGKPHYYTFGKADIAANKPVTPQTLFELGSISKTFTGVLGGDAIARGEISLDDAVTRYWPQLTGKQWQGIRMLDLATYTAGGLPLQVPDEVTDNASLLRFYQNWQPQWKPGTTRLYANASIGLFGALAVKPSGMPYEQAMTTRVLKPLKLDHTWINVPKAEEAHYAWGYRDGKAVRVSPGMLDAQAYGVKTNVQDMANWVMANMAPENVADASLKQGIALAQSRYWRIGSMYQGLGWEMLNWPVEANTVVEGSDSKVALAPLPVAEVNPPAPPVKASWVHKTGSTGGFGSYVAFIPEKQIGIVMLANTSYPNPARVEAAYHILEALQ

NC[C@@H]1C(c2nccs2)=C[C@@H]2CN1C(=O)N2OS(=O)(=O)[O-].O=C(O)C(F)(F)F.[Na+] [Example 2, Sodium and 2,2,2-trifluoroacetate [(2S,5R)-2-(azaniumylmethyl)-7-oxo-3-thiazol-2-yl-1,6-diazabicyclo[3.2.1]oct-3-en-6-yl] sulfate]
pIC50 (OXA-48): 8.46
MIC [1]: 16 mg/L
MIC, combination of CAZ and compounds of the invention [2]: ≤0.125 mg/L
MIC [2]: 8 mg/L
MIC, combination of CAZ and compounds of the invention [3, 19]: <0.25 mg/L
MIC [3]: 2 mg/L
MIC, combination of CAZ and compounds of the invention [4, 19]: <0.25 mg/L
MIC [4]: 2 mg/L
MIC (E. coli RGN238 (OXA-1)): 8 mg/L
MIC, combination of CAZ and compounds of the invention (E. coli RGN238 (OXA-1)): ≤0.125 mg/L
MIC [5]: 4 mg/L
MIC, combination of CAZ and compounds of the invention [5]: <0.25 mg/L
MIC, combination of CAZ and compounds of the invention [6, 19]: <0.25 mg/L
MIC [6]: 8 mg/L
MIC [7]: > 32 mg/L
MIC, combination of CAZ and compounds of the invention [7]: 4 mg/L
MIC [8]: 16 mg/L
MIC, combination of CAZ and compounds of the invention [8]: ≤0.125 mg/L
MIC [9]: 32 mg/L
MIC, combination of CAZ and compounds of the invention [9]: 2 mg/L
MIC [10]: ≤ 0.016 mg/L
MIC, combination of CAZ and compounds of the invention [10]: <0.25 mg/L
MIC [11]: 4 mg/L
MIC, combination of CAZ and compounds of the invention [11]: <0.25 mg/L
MIC, combination of CAZ and compounds of the invention ([12]; MIC of ceftazidime with compound fixed at 4 μg/mL, strain UFR93 (P. aeruginosa)): <0.25 mg/L
MIC [12]: 4 mg/L
MIC [13]: ≤ 0.016 mg/L
MIC, combination of CAZ and compounds of the invention [13]: <0.25 mg/L
MIC [14]: 0.031 mg/L
MIC, combination of CAZ and compounds of the invention [14]: <0.25 mg/L
MIC [15]: 4 mg/L
MIC, combination of CAZ and compounds of the invention [15]: ≤0.125 mg/L
MIC, combination of CAZ and compounds of the invention [16]: <0.25 mg/L
MIC [16]: 2 mg/L
MIC [17]: 32 mg/L
MIC, combination of CAZ and compounds of the invention [17]: <0.25 mg/L
pIC50 (AmpC (P99)): 8.49
MIC [18]: 16 mg/L
pIC50 (OXA-1): 8.21
pIC50 (AmpC (PAE)): 6.96
pIC50 (KPC-2): 8.41
pIC50 (OXA-15): 9.08

NC[C@@H]1C(c2ncco2)=C[C@@H]2CN1C(=O)N2OS(=O)(=O)[O-].O=C(O)C(F)(F)F.[Na+] [Example 5, Sodium and 2,2,2-trifluoroacetate [(2S,5R)-2-(azaniumylmethyl)-7-oxo-3-oxazol-2-yl-1,6-diazabicyclo[3.2.1]oct-3-en-6-yl] sulfate]
pIC50 (OXA-48): 6.74
MIC [1]: 8 mg/L
MIC, combination of CAZ and compounds of the invention ([1]; MIC of ceftazidime with compound fixed at 4 μg/mL, strain UFR85 (E. cloacae)): <0.25 mg/L
MIC, combination of CAZ and compounds of the invention [2]: <0.25 mg/L
MIC [2]: 4 mg/L
MIC [3]: 0.25 mg/L
MIC [4]: 2 mg/L
MIC (E. coli RGN238 (OXA-1)): 16 mg/L
MIC, combination of CAZ and compounds of the invention (E. coli RGN238 (OXA-1)): <0.25 mg/L
MIC [5]: 8 mg/L
MIC, combination of CAZ and compounds of the invention [5]: <0.25 mg/L
MIC [6]: 2 mg/L
MIC [7]: > 32 mg/L
MIC, combination of CAZ and compounds of the invention [7]: 8 mg/L
MIC [8]: 16 mg/L
MIC, combination of CAZ and compounds of the invention [8]: ≤0.125 mg/L
MIC [9]: > 32 mg/L
MIC, combination of CAZ and compounds of the invention [9]: <0.25 mg/L
MIC [10]: 0.063 mg/L
MIC, combination of CAZ and compounds of the invention [10]: <0.25 mg/L
MIC [11]: 4 mg/L
MIC, combination of CAZ and compounds of the invention [11]: <0.25 mg/L
MIC [12]: 4 mg/L
MIC [13]: ≤ 0.016 mg/L
MIC, combination of CAZ and compounds of the invention [13]: <0.25 mg/L
MIC [14]: 0.5 mg/L
MIC, combination of CAZ and compounds of the invention [14]: <0.25 mg/L
MIC [15]: 4 mg/L
MIC, combination of CAZ and compounds of the invention [15]: <0.25 mg/L
MIC, combination of CAZ and compounds of the invention [16]: <0.25 mg/L
MIC [16]: 2 mg/L
MIC [17]: ≤ 0.016 mg/L
MIC, combination of CAZ and compounds of the invention [17]: <0.25 mg/L
pIC50 (AmpC (P99)): 4.96
MIC [18]: 32 mg/L
MIC, combination of CAZ and compounds of the invention ([18]; MIC of ceftazidime with compound fixed at 4 μg/mL, strain UFR68 (K. pneumoniae)): ≤0.25 mg/L
pIC50 (OXA-1): 6.43
pIC50 (AmpC (PAE)): 4.92
pIC50 (KPC-2): 5.74
pIC50 (OXA-15): 8.10
